“And” between values parts separate entries of the source, which are not always exact repeats. Equal entries are not always repeated.
Key:
[1] = test system: Akt; test: PRAS40 (threonine 246) phosphorylation in tumor tissue by IHC; assay type: in vivo, human; conditions: for pPRAS 40 Induction: statistically significant increase S2 vs S1 (p < 0.05, Wilcoxon), individual patients
Description: (§1) The following antibodies were used for IHC: anti-PTEN (6H2.1, #ABM-2052, Cascade BioScience; 1:400 dilution), anti-Ki-67 (MIB-1, M7240, DakoCytomation; 1:100 Dilution), anti-phospho Ser235/236 S6 (91B2, #4857, Cell Signaling; 1:50 dilution), anti phospho Ser240/244 S6 (#2215, Cell Signaling; 1:200 dilution), anti-phospho-PRAS 40 (#44–1100G, Biosource; 1:200 dilution), anti-phospho Ser473 Akt (736E11, #3787, Cell Signaling; 1:50 dilution), anti-phospho Thr389 p70 S6 Kinase (#9205, Cell Signaling; 1:100 Dilution), and anti phospho Ser1108 eIF4G at 1:400 (#2441, Cell Signaling; 1:400 dilution). Antigen retrieval was performed using 0.01 M citrate buffer, pH 6.0 for 30 min in an oven and peroxidase activity was quenched with 3% hydrogen peroxide in water. Primary antibodies were diluted in PBS /2% bovine serum albumin/2% normal horse serum (for anti-PTEN) or TBS/0.1% Tween/5% normal goat serum (for phosphosite-specific antibodies) and applied overnight at 4 °C. Biotinylated secondary antibodies (Vector) were applied at 1:200 dilution for 45 min, and the avidin-biotin complex (Elite ABC, Vector) for 30 min. Vector NovaRed was used as the enzyme substrate to visualize specific antibody localization. […] All slides were counterstained with Harris hematoxylin.
We assessed Akt activity in S1 and S2 samples in the rapamycin-treated patients using phosphosite-specific antibodies against the serine/threonine kinase Akt (serine 473) and its downstream substrate PRAS 40 (threonine 246), which serves as a biomarker for Akt activity (Figure 4A). PRAS40 has also been recently shown to inhibit mTOR, and this inhibition is relieved by Akt phosphorylation.
(§2) Scoring of immunohistochemical stains. […] Digital scores for PTEN, phospho-S6, and phospho-PRAS40 are based on absolute staining intensity of tumor cells as quantified following false-color conversion. PTEN, phospho-S6, phospho-PRAS40, and Ki-67 were scored in representative and matching areas of consecutive tissue sections (Suppl. Fig. 1), excluding areas with large vessels and/or prominent reactive changes (e.g., reactive astrogliosis or lymphocytic infiltration). […] Quantitative analysis was done using HSI color algorithm based on hue, saturation and intensity. Saturations of the separated cell in the images were quantified in the red-brown hue range to exclude the negative staining area with hematoxylin nuclear staining. To compare the staining intensity of all slides, mean saturation of total cells on each image was quantified and calculated. For Ki-67 staining scoring, separated cells were quantified with red brown hue range (positive staining) and total hue range (all cells) after cell border separation and Ki-67 labeling index was calculated based on these numbers. […]

[2] = test system: PTEN-deficient glioblastoma; test: Ki-67 labeling index of tumor tissue (S2 versus S1); assay type: in vivo, human; conditions: for Ki-67 Decrease: about 1 wk pre-operative, S2 vs S1, individual patients
Description: (§3) To quantify mTOR activity in matched S1 and S2 samples, we measured phosphorylation of S6 ribosomal protein by immunohistochemistry using two distinct phosphosite antibodies directed against Ser235/236 or Ser240/244. […] Immunohistochemistry (IHC) scoring is described in detail in Text S1.
The following antibodies were used for IHC: anti-PTEN (6H2.1, #ABM-2052, Cascade BioScience; 1:400 dilution), anti-Ki-67 (MIB-1, M7240, DakoCytomation; 1:100 Dilution), anti-phospho Ser235/236 S6 (91B2, #4857, Cell Signaling; 1:50 dilution), anti phospho Ser240/244 S6 (#2215, Cell Signaling; 1:200 dilution), anti-phospho-PRAS 40 (#44–1100G, Biosource; 1:200 dilution), anti-phospho Ser473 Akt (736E11, #3787, Cell Signaling; 1:50 dilution), anti-phospho Thr389 p70 S6 Kinase (#9205, Cell Signaling; 1:100 Dilution), and anti phospho Ser1108 eIF4G at 1:400 (#2441, Cell Signaling; 1:400 dilution). Antigen retrieval was performed using 0.01 M citrate buffer, pH 6.0 for 30 min in an oven and peroxidase activity was quenched with 3% hydrogen peroxide in water. Primary antibodies were diluted in PBS /2% bovine serum albumin/2% normal horse serum (for anti-PTEN) or TBS/0.1% Tween/5% normal goat serum (for phosphosite-specific antibodies) and applied overnight at 4 °C. […]
as §2, with “numbers. For p-PRAS40 scoring, mean saturation of the positive staining tumor cells was quantified in the red-brown hue range, followed by multiplying the positive cell ratio in the same image to evaluate both staining intensity and staining distribution. pS473 Akt was quantified on a scale of 0-2; 0^+ = no staining, 1^+ = mild intensity cytoplasmic staining, and 2^+ = strong cytoplasmic staining.” for “numbers.”

[3] = test system: mTOR; test: S6 ribosomal protein phosphorylation in tumor tissue by IHC (S2 versus S1); assay type: in vivo, human; conditions: ratio of median IHC staining score S2 to S1, individual patients
Description: as §3, §1
To quantify mTOR activity, we measured phosphorylation of S6 ribosomal protein by immunohistochemistry. S6 is a direct substrate of S6 kinase 1, a downstream effector of mTOR action, and has been widely used as a pharmacodynamic readout of mTOR inhibition in preclinical studies. To ensure specificity, we used two distinct phosphosite antibodies directed against Ser235/236 or Ser240/244 (Figure 2B). Both sites are directly phosphorylated by S6 kinase 1, but Ser235/236 can also be phosphorylated by p90 ribosomal S6 kinase (RSK) and other kinases. All measurements were quantified by digital readout of 2,500–5,000 tumor cells per slide cut from paraffin-embedded tissue (Figure S1).
Supplementary file pmed.0050008.sg001.pdf: Figure S1 Digital Scoring of Immunohistochemical Stains Adjacent tissue sections from each tumor were stained with antibodies against Ki-67, phospho S6 ribosomal protein (S6RP), phospho-PRAS40, and PTEN (unpublished data). Five areas per slide, each representing approximately 500–1,000 tumor cells, were selected for digital scoring. Image conversion and scoring was performed using Soft Imaging System Software. The distribution of immunoreactivity within these 2,500–5,000 cells was graphed for each sample as a box plot. The “fold change” (F.C.) in S6 immunoreactivity (Table 2 and Figure S2) was calculated for each tumor as the ratio between median staining score in the S2 and the median staining score in the S1 sample. (135 KB PDF) Click here for additional data file.
Scoring of immunohistochemical stains. Immunohistochemical screening of tumor samples for PTEN expression was based on a manual scoring method which compares PTEN staining of tumor cells to the PTEN staining of endothelial cells within the same viewfield and assigns scores of 0 (absent in tumor cells), 1 (reduced in tumor cells relative to endothelial cells), and 2 (tumor cells staining similar to endothelial cells). Digital scores for PTEN, phospho-S6, and phospho-PRAS40 are based on absolute staining intensity of tumor cells as quantified following false-color conversion.

[4] = test system: short-term cultures derived from tumors; test: Ex vivo rapamycin response of short-term tumor cultures (S6 immunoblot); assay type: cell-based, human; conditions: 0.3 and 3.0 nM, 8 h; rapamycin-sensitive (patients 1 and 3) and rapamycin-resistant (patients 2 and 12) samples
Description: The lower and upper end of the box corresponds to the 25th and 75th percentile, respectively. The whiskers extend to the 95% range. The Wilcoxon nonparametric group comparison test was used to calculate p-values for the differences between different patient groups. […] The horizontal line inside the box indicates the median value. The lower and upper border of the box corresponds to the 25th and 75th percentile, respectively. The whiskers extend to the 95% range.

Compound: CO[C@H]1C[C@@H]2CC[C@@H](C)[C@@](O)(O2)C(=O)C(=O)N2CCCC[C@H]2C(=O)O[C@H]([C@H](C)C[C@@H]2CC[C@@H](O)[C@H](OC)C2)CC(=O)[C@H](C)/C=C(\C)[C@@H](O)[C@@H](OC)C(=O)[C@H](C)C[C@H](C)/C=C/C=C/C=C/1C [Rapamycin]
- pPRAS 40 Induction ([1]; 2 mg oral daily): Yes
- pPRAS 40 Induction ([1]; 5 mg oral daily): No and Yes
- pPRAS 40 Induction ([1]; 10 mg oral daily): Yes and No
- patients with statistically significant increase in PRAS40 phosphorylation in S2 sample ([1]; Seven of 14 patients, p < 0.05, Wilcoxon test): 50%
- Ki-67 Decrease ([2]; 2 mg oral daily): Yes and No
- Ki-67 Decrease ([2]; 5 mg oral daily): No and Yes
- Ki-67 Decrease ([2]; 10 mg oral daily): Yes and No
- patients with nearly complete inhibition (dramatic reduction) of tumor cell proliferation ([2]; Ki-67 staining after about 1 wk of rapamycin): seven of 14 and 7/14
- pS6 S2/S1 pSer235/236 ([3]; 2 mg oral daily): 0.46 and 1.01
- pS6 S2/S1 pSer240/244 ([3]; 2 mg oral daily): 0.61 and 0.82 and 0.85
- pS6 S2/S1 pSer235/236 ([3]; 5 mg oral daily): 0.91 and 0.48 and 0.22 and 0.77 and 1.16
- pS6 S2/S1 pSer240/244 ([3]; 5 mg oral daily): 0.94 and 0.51 and 0.18 and 0.58 and 0.54
- pS6 S2/S1 pSer235/236 ([3]; 10 mg oral daily): 0.78 and 0.55 and 0.19 and 0.81 and 1.50 and 0.60
- pS6 S2/S1 pSer240/244 ([3]; 10 mg oral daily): 0.27 and 0.58 and 0.44 and 0.60 and 0.56 and 0.91
- S6 phosphorylation ex vivo [4]: inhibited equally
